Results: paper PMC7926793, “Synthesis and Biological Evaluation of 1-(Diarylmethyl)-1H-1,2,4-triazoles and 1-(Diarylmethyl)-1H-imidazoles as a Novel Class of Anti-Mitotic Agent for Activity in Breast Cancer” (Pharmaceuticals, 2021)
Where “and” joins values, the source holds several entries; their conditions need not be identical. Equal values may be shown once.

Experiments:
NCI 60 cell line panel = experiment: NCI 60 cell line screen, panel means; format: cell-based, human; details: 60 cell line panel, single dose 10 µM
HL-60 (TB) = experiment: NCI 60 cell line screen (Leukemia); format: cell-based, human; details: single dose 10 µM
K-562 = experiment: NCI 60 cell line screen (Leukemia); format: cell-based, human; details: K-562, single dose 10 µM
MOLT-4 = experiment: NCI 60 cell line screen (Leukemia); format: cell-based, human; details: MOLT-4, single dose 10 µM
A549/ATCC = experiment: NCI 60 cell line screen (Non-Small Cell Lung Cancer); format: cell-based, human; details: single dose 10 µM
NCI-H226 = experiment: as above; format: cell-based, human; details: NCI-H226, single dose 10 µM
COLO 205 = experiment: NCI 60 cell line screen (Colon Cancer); format: cell-based, human; details: COLO 205, single dose 10 µM
HCT-116 = experiment: NCI 60 cell line screen (Colon Cancer); format: cell-based, human; details: HCT-116, single dose 10 µM
HT29 = experiment: NCI 60 cell line screen (Colon Cancer); format: cell-based, human; details: HT29, single dose 10 µM
KM12 = experiment: NCI 60 cell line screen (Colon Cancer); format: cell-based, human; details: KM12, single dose 10 µM
SW-620 = experiment: NCI 60 cell line screen (Colon Cancer); format: cell-based, human; details: SW-620, single dose 10 µM
SF-268 = experiment: NCI 60 cell line screen (CNS Cancer); format: cell-based, human; details: SF-268, single dose 10 µM
SF295 = experiment: NCI 60 cell line screen (CNS Cancer); format: cell-based, human; details: SF295, single dose 10 µM
SF539 = experiment: NCI 60 cell line screen (CNS Cancer); format: cell-based, human; details: SF539, single dose 10 µM
SNB-75 = experiment: NCI 60 cell line screen (CNS Cancer); format: cell-based, human; details: SNB-75, single dose 10 µM
U251 (AC in Table 3) = experiment: NCI 60 cell line screen (CNS Cancer); format: cell-based, human; details: U251, single dose 10 µM
PC-3 = experiment: NCI 60 cell line screen (Prostate cancer); format: cell-based, human; details: PC-3, single dose 10 µM
MALME-3M = experiment: NCI 60 cell line screen (Melanoma); format: cell-based, human; details: single dose 10 µM
MDA-MB-435 = experiment: NCI 60 cell line screen (Melanoma); format: cell-based, human; details: MDA-MB-435, single dose 10 µM
SK-MEL-28 = experiment: NCI 60 cell line screen (Melanoma); format: cell-based, human; details: SK-MEL-28, single dose 10 µM
SK-MEL-5 = experiment: NCI 60 cell line screen (Melanoma); format: cell-based, human; details: SK-MEL-5, single dose 10 µM
IGROV1 = experiment: NCI 60 cell line screen (Ovarian Cancer); format: cell-based, human; details: IGROV1, single dose 10 µM
OVCAR-8 = experiment: NCI 60 cell line screen (Ovarian Cancer); format: cell-based, human; details: OVCAR-8, single dose 10 µM
786-0 = experiment: NCI 60 cell line screen (Renal Cancer); format: cell-based, human; details: 786-0, single dose 10 µM
A498 = experiment: NCI 60 cell line screen (Renal Cancer); format: cell-based, human; details: A498, single dose 10 µM
RXF 393 = experiment: NCI 60 cell line screen (Renal Cancer); format: cell-based, human; details: RXF 393, single dose 10 µM
TK-10 = experiment: NCI 60 cell line screen (Renal Cancer); format: cell-based, human; details: TK-10, single dose 10 µM
UO-31 = experiment: NCI 60 cell line screen (Renal Cancer); format: cell-based, human; details: UO-31, single dose 10 µM
MDA-MB-468 = experiment: NCI 60 cell line screen (Breast Cancer); format: cell-based, human; details: MDA-MB-468, single dose 10 µM
CYP19 (aromatase) = molecular target: T1, CYP19 (aromatase) (Homo sapiens, UniProt P11511); experiment: cytochrome P450 assay (DBF fluorescence)
T1 sequence (P11511 1-503): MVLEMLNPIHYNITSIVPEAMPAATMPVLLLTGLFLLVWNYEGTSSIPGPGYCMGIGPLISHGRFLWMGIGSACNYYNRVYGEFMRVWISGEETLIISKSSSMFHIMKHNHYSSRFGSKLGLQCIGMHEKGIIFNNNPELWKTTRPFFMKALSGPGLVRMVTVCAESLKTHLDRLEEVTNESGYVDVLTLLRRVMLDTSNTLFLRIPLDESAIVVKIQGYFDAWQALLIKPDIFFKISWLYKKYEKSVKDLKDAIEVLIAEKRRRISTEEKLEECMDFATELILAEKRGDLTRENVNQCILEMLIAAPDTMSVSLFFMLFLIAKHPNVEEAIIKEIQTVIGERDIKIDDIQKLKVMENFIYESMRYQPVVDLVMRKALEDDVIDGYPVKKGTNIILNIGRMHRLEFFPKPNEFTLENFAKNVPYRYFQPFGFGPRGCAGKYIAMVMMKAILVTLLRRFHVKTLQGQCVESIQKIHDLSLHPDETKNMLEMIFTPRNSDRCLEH

SMILES	Mean Growth percentage (NCI 60 cell line panel)	Growth percentage (HL-60 (TB)) [%]	Growth percentage (K-562) [%]	Growth percentage (MOLT-4) [%]	Growth percentage (A549/ATCC) [%]	Growth percentage (NCI-H226) [%]	Growth percentage (COLO 205) [%]	Growth percentage (HCT-116) [%]	Growth percentage (HT29) [%]	Growth percentage (KM12) [%]	Growth percentage (SW-620) [%]	Growth percentage (SF-268) [%]	Growth percentage (SF295) [%]	Growth percentage (SF539) [%]	Growth percentage (SNB-75) [%]	Growth percentage (U251 (AC in Table 3)) [%]	Growth percentage (PC-3) [%]	Growth percentage (MALME-3M) [%]	Growth percentage (MDA-MB-435) [%]	Growth percentage (SK-MEL-28) [%]	also measured
COc1ccc(C(c2cc(OC)c(OC)c(OC)c2)N2CCCC2)cc1 (stereo not drawn) [25g]	73.14% and 73.1%	35.51	25.23	78.09	77.65	87.61	71.23	62.27	40.59	43.91	47.76	84.26	69.71	95.69	84.06	77.78	63.89	85.32	-21.80	80.08	Growth percentage (SK-MEL-5): 65.20%; Growth percentage (IGROV1): 82.87%; Growth percentage (OVCAR-8): 95.58%; Growth percentage (786-0): 93.40%; Growth percentage (A498): 31.23%; Growth percentage (RXF 393): 103.13%; Growth percentage (TK-10): 88.29%; Growth percentage (UO-31): 75.13%; Growth percentage (MDA-MB-468): 54.75%
COc1ccc(C(c2cc(OC)c(OC)c(OC)c2)n2nccn2)cc1O (stereo not drawn) [compound 24]																					IC50 (CYP19 (aromatase); IC50 CYP19): > 53.8 µM; inhibition at 20 µg/mL (CYP19 (aromatase); read-out: % Inhibition at 20 µg/mL CYP19): 0.01%
COc1ccc(C(c2cc(OC)c(OC)c(OC)c2)N2CCN(Cc3ccccc3)CC2)cc1 (stereo not drawn) [27d]	65.45% and 65.5%	22.98	26.38	53.48	78.38	85.40	61.78	56.66	28.31	40.62	43.57	86.44	68.71	81.24	92.44	62.75	59.28	74.83	-32.20	78.33	Growth percentage (SK-MEL-5): 52.63%; Growth percentage (IGROV1): 62.96%; Growth percentage (OVCAR-8): 92.58%; Growth percentage (786-0): 82.57%; Growth percentage (A498): 51.90%; Growth percentage (RXF 393): 72.30%; Growth percentage (TK-10): 84.76%; Growth percentage (UO-31): 68.80%; Growth percentage (MDA-MB-468): 52.99%
